Measurements: PMC11850127 (The Journal of Biological Chemistry, 2025)
“Also recorded” adds a separate entry of the source. Starred links: 1 amine or outer side, 2 acyl side, 3 side chain; linkers in the order of their positions; H or OH if unused. Positions of bridges follow the written chain, without caps; N, C: chain ends. Non-standard residues stand in square brackets, D forms with d. Residues, ends and D or L forms follow the SMILES beside them. Chains are numbered I, II in the order given. Actinocin(9to1) = Cc1c2oc3c(C)ccc(C(=O)[*:1])c3nc-2c(C(=O)[*:2])c(N)c1=O; NMeV = CN[C@H](C(=O)O)C(C)C; Sar = CNCC(=O)O

Test system: [V13′T]α10 nAChR
Type: cell-based, human (expressed in Xenopus laevis oocytes)

Cc1c2oc3c(C)ccc(C(=O)N[C@@H]4C(=O)N[C@H](C(C)C)C(=O)N5CCC[C@H]5C(=O)N(C)CC(=O)N(C)[C@@H](C(C)C)C(=O)O[C@@H]4C)c3nc-2c(C(=O)N[C@@H]2C(=O)N[C@H](C(C)C)C(=O)N3CCC[C@H]3C(=O)N(C)CC(=O)N(C)[C@@H](C(C)C)C(=O)O[C@@H]2C)c(N)c1=O [actinomycin D] (I: T[dV]P[Sar][NMeV] / II: T[dV]P[Sar][NMeV]; ester I:1-I:C, II:1-II:C; linker I:N-II:N via Actinocin(9to1))
effect of actinomycin D on ACh-induced currents: did not differ in the magnitude of their ACh-induced currents from untreated controls; also recorded: not significantly different | mean ACh-induced response with actinomycin D: −233 ± 219 nA
